Test results as given in patent publication US9969989B2, “Carotenoid dioxygenase and methods for the biotechnological production in microorganisms and plants of compounds derived from saffron” (AGENZIA NAZIONALE PER LE NUOVE TECNOLOGIE, L'ENERGIA E LO …, priority 2014, dated 2018).

How the values were obtained:
CCD2 [1] = experiment: In vitro assay with semi-purified extracts of E. coli expressing CCD2, specificity for carotenoids; format: biochemical, Crocus sativus
From the text: (§1) RNA isolated from stigmas of saffron was sequenced by means of RNA-Seq 454 Titanium technology as reported in the literature (10) (FIG. 2A). The evolutionary relationships between the gene families CCD1 and CCD4 of saffron, Arabidopsis, rice and Synechocystis, were studied using the Neighbor-Joining method (11) (FIG. 2B), whilst the CCD proteins were modelled using the web server RaptorX (12) (FIG. 2C). The assays in bacteria were obtained by transforming particular strains of E. coli engineered to accumulate lycopene, β-carotene, and zeaxanthin, with the expression vectors pThio-DAN1-CCD2, pThio-DAN1-ZCD and pThio-DAN1 (empty vector, used as control) as indicated in the literature (13) (14) (15) (FIG. 3). The transformation of corn endosperm, in Agrobacterium tumefaciens-mediated manner, was obtained by cloning the coding sequence of CCD2 in the vector pBI121 (16) and by using protocols already present in the literature (17). The strain of E. coli BL21 (p-Gro7) was used to assay the activity in vitro of CCD2: the raw protein extracts were prepared and incubated with the appropriate substrates and extracts as described before (14) (FIG. 4). All the analyses directed to the identification and quantification of the carotenoids and apocarotenoids were performed using a mass spectrometry platform LTQ-Orbitrap coupled with a high-pressure liquid chromatography (HPLC) system and with a diode array detector (DAD) (ThermoFisher Scientific); the chromatographic separation was obtained using a C30 column with inverse phase, whereas for positive ionisation an APCI (Atmospheric Pressure Chemical Ionization) source was selected (18).
Since the strains of genetically modified E. coli can produce only a limited number of different carotenoids, we developed and used an in vitro assay, based on semi-purified extracts of E. coli that expresses CCD2, in order to study the specificity of this enzyme for the various carotenoids. […] 3-OH-β-apo-8′-carotenal, formed from CCD2 on the basis of the zeaxanthin in vitro, is then cleaved from the CCD2, with production of crocetin, signalling that the extracts of E. coli are able to convert the product of CCD2, crocetin dialdehyde, into crocetin.

ZCD [2] = target: T1, ZCD (Crocus sativus, UniProt Q84K96); experiment: Corn endosperm transformed with 35S:ZCD, carotenoids and apocarotenoids by LC-HRMS; format: cell-based; details: for Relative content of carotenoids and apocarotenoids in corn endosperm: 35S: ZCD, peak areas of the ions standardised by the internal standard, mean ± SD of 4 biological repetitions
T1 construct: expressed in transfected cells; host or cells: corn (maize) endosperm, Agrobacterium tumefaciens-mediated transformation
T1 sequence (Q84K96 1-369): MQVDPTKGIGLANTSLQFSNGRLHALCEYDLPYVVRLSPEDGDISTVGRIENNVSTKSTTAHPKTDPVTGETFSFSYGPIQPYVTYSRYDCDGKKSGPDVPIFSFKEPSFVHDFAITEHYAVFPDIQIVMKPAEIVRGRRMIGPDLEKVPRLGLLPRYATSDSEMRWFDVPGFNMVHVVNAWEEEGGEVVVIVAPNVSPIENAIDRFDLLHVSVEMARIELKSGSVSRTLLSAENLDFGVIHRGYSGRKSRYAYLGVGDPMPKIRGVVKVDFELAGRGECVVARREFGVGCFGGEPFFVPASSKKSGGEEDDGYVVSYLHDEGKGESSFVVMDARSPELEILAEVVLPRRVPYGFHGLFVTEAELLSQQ
From the text: as §1
The sequences coding CCD2 and ZCD were cloned in the binary vector pBI121 under the control of the established promoter 35S. The vectors thus obtained were used to transform corn endosperm and cells of Arabidopsis thaliana, which contain zeaxanthin. […] Such a conversion is caused by the conversion of crocetin dialdehyde to crocetin in the corn endosperm (Table 1) and in the cells of Arabidopsis thaliana.

CCD2 [3] = experiment: CCD2 expressed in E. coli strains that accumulate lycopene, β-carotene or zeaxanthin; format: cell-based, Crocus sativus; details: E. coli strain accumulating the carotenoid, expression of CCD2
From the text: as §1
(§2) The coding sequences of the genes CCD2 and ZCD were cloned in the vector pThio-DAN1, which allows an inducible expression in E. coli induced from arabinose. The recombinant proteins were expressed in three strains of E. coli that accumulate lycopene, β-carotene and zeaxanthin (FIG. 3A) (13) (14). […] A peak with the chromatographic and the m/z ratio (329.1747) typical of crocetin was also discernible.

ZCD [4] = target: T1, ZCD; experiment: ZCD expressed in E. coli strains that accumulate lycopene, β-carotene or zeaxanthin; format: cell-based; details: E. coli strain accumulating the carotenoid, expression of ZCD
From the text: as §1, §2

ZCD [5] = target: T1, ZCD; experiment: In vitro assay with extracts of E. coli expressing ZCD, specificity for carotenoids; format: biochemical

| Compound | Cleavage of the substrate in vitro (CCD2 [1]) | Relative content of carotenoids and apocarotenoids in corn endosperm (ZCD [2]) | Discoloration and cleavage product of the accumulated carotenoid (CCD2 [3]) | Discoloration and cleavage product of the accumulated carotenoid (ZCD [4]) | further results |
| --- | --- | --- | --- | --- | --- |
| 3-OH-β-apo-8′-carotenal | cleaved | – | – | – | – |
| CC1=C[C@H](O)CC(C)(C)[C@H]1/C=C/C(C)=C/C=C/C(C)=C/C=C/C=C(C)/C=C/C=C(C)/C=C/C1=C(C)C[C@@H](O)CC1(C)C [Lutein] | – | 0.64 ± 0.09 | – | – | – |
| CC1=C(/C=C/C(C)=C/C=C/C(C)=C/C=C/C=C(C)/C=C/C=C(C)/C=C/C2=C(C)C[C@@H](O)CC2(C)C)C(C)(C)C[C@H](O)C1 [Zeaxanthin] | cleaves | 1.73 ± 0.20 | clear discoloration | did not produce any discoloration or any cleavage product | Cleavage of the substrate in vitro (ZCD [5]): does not cleave; Cleavage product of zeaxanthin produced (ZCD [2]; corn endosperm expressing ZCD): No cleavage product |
| CC(C)=CCC/C(C)=C/C=C/C(C)=C/C=C/C(C)=C/C=C/C=C(C)/C=C/C=C(C)/C=C/C=C(\C)CCC=C(C)C [lycopene] | – | – | no discoloration and no cleavage product | no discoloration and no cleavage product | – |
| CC(/C=C/C=C(C)/C=C/[C@@]12O[C@]1(C)C[C@@H](O)CC2(C)C)=C\C=C\C=C(C)\C=C\C=C(C)\C=C\[C@@]12O[C@]1(C)C[C@@H](O)CC2(C)C [violaxanthin] | does not cleave | – | – | – | – |
| CC1=C(/C=C/C(C)=C/C=C/C(C)=C/C=C/C=C(C)/C=C/C=C(\C)C=O)C(C)(C)CCC1 [β-apo-8′-carotenal] | does not cleave | – | – | – | – |
| CC1=C(/C=C/C(C)=C/C=C/C(C)=C/C=C/C=C(C)/C=C/C=C(C)/C=C/C2=C(C)CCCC2(C)C)C(C)(C)CCC1 [β-carotene] | does not cleave | – | no discoloration and no cleavage product | no discoloration and no cleavage product | – |
| CC1=C(/C=C/C(C)=C/C=C/C(C)=C/C=C/C=C(C)/C=C/C=C(C)/C=C/C2=C(C)C[C@@H](O)CC2(C)C)C(C)(C)CCC1 [β-cryptoxanthin] | – | 0.12 ± 0.04 | – | – | – |
